In patent publication US6083932A, “Pharmaceutical compositions derived from ginseng and methods of treatment using same” (CV Technologies Inc., priority 1998, dated 2000):

What was measured:
monoamine oxidase-B = molecular target: T1, monoamine oxidase-B (Rattus norvegicus, UniProt P19643); experiment: in vitro monoamine oxidase-B inhibiting activity (radiochemical, β-phenylethylamine substrate); type: biochemical; conditions: read-out: % MAO-B Inhibition; for inhibition at 1000 µg/mL: 1.0 mg/ml; for inhibition at 10000 µg/mL: 10 mg/ml
T1 construct: homogenates of rat brain; from tissue; host or cells: rat brain homogenate
T1 sequence (P19643 1-520): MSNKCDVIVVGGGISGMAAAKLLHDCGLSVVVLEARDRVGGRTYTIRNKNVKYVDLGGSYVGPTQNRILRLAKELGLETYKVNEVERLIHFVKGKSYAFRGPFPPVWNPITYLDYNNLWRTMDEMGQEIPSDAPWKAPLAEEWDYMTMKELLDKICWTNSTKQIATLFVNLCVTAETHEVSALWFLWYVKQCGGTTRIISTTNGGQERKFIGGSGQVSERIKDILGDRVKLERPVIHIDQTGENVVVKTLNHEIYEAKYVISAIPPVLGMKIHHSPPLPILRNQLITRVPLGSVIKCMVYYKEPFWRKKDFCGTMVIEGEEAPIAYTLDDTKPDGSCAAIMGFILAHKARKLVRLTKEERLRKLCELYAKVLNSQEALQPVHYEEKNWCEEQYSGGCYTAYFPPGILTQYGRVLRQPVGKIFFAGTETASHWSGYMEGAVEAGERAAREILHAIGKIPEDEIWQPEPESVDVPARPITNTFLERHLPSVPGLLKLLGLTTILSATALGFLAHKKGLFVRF
Experimental: (§1) Example 1 is a study of the effects of several extracts of HT1001, PQ4, PQ5, PQ6 and pure ginsenosides, on monoamine oxidase A (MAO A) and monoamine oxidase B (MAO B) activity in vitro.
(§2) HT-1001, related extracts and pure ginsenosides were evaluated for in vitro monoamine oxidase-A and monoamine oxidase-B inhibiting activity using the radiochemical procedure of Lyles and Callingham, Biochem. Pharmacol. 31: 1417-1424 (1982), employing either radiolabelled 5-hydroxytryptamine or β-phenylethylamine as substrates for monoamine oxidase-A (MAO-A) or monoamine oxidase-B (MAO-B) respectively. Various concentrations of the compounds of interest were incubated in appropriately diluted homogenates of rat brain in a 0.2 M potassium phosphate buffer. After a 15 minute preincubation period the reaction was initiated by the addition of substrate. Incubations proceded at 37° C. for 10 minutes. Incubation was terminated by the addition of acid and the radiolabelled products (5-hydroxyindoleacetic acid, 5-hydroxyindoleacetaldehyde or phenylacetic acid, phenylacetaldehyde) were extracted and quantified by liquid scintillation counting procedures. Incubations were done in triplicate and incubations including pheneizine a known MAO inhibitor were included as controls and for comparison. The percent inhibition of monoamine oxidase-A or monoamine oxidase-B activity compared to controls containing no experimental material was calculated.

monoamine oxidase-A = molecular target: T2, monoamine oxidase-A (Rattus norvegicus, UniProt P21396); experiment: in vitro monoamine oxidase-A inhibiting activity (radiochemical, 5-hydroxytryptamine substrate); type: biochemical; conditions: read-out: % MAO-A Inhibition; for inhibition at 1000 µg/mL: 1.0 mg/ml; for inhibition at 10000 µg/mL: 10 mg/ml
T2 construct: homogenates of rat brain; from tissue; host or cells: rat brain homogenate
T2 sequence (P21396 1-526): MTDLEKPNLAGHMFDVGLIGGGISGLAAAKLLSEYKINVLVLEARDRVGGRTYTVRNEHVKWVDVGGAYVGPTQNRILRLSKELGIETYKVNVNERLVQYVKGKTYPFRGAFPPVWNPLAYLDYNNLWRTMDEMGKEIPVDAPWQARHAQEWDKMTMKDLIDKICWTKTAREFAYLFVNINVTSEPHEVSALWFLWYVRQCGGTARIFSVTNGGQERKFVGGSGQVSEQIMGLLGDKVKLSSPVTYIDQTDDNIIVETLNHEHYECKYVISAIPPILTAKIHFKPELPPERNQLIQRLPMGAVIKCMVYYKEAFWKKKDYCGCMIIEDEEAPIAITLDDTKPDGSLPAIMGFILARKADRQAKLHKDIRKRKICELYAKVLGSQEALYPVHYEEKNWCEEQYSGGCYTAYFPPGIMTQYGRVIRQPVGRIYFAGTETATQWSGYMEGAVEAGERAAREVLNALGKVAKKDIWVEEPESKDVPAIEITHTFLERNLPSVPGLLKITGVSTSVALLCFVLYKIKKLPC
Experimental: as §1, §2

PC12 cells = experiment: neurite outgrowth in PC12 cells; type: cell-based; conditions: seven days after treatment
Experimental: A study of the neurotrophic effects of HT1001 and some pure ginsenosides was conducted. A new mechanism of action for HT1001 was shown, which is the stimulation of neurite outgrowth in a PC12 cell line. […] The beneficial effects (prevention/treatment) of HT-1001 may apply to degenerative diseases such as senile dementia, Parkinson's disease, Alzheimer's disease, multi-infarct dementia, etc. Alzheimer's disease (AD) is associated with degeneration of cholinergic nerve tracts including projections from the basal forebrain to the cortex and hippocampus. The PC12 (pheochromocytoma) cell line is one of the models for the study of the development of these nerve tracts. The cell line is phenotypically a chromaffin cell line, but can be induced to express adrenergic and cholinergic markers as well. This model has the advantages that (1) it is an immortalized cell line, (2) it is sensitive to, but not dependent upon, NGF for survival, and (3) it shares many properties in common with the central cholinergic neurons of the basal forebrain. It has been noted that PC12 cells are not sensitive to all of the trophic factors that central cholinergic neurons respond to, whereas central cholinergic neurons respond to all trophic factors that PC12 cells respond to. […] The cellular responses to Nerve Growth Factor (NGF) and samples were determined by counting the number of cells containing processes in PC12 cells. […] The cells and neurites were counted as follows: The cells with circular or global shape and no neurite outgrowth were scored as 0 (S0). […] Cells with more than two small neurites on the cell bodies were scored as S2. Cells with one or two neurites with a length of at least two times diameter as their body were scored as S3. Cells with more than two long neurites were scored as S4. The neurite index was calculated as below: Neurite index (In)=total neurite Score (ΣS)/total cell number (.[…] is the cell number of every cell field. The test samples included: […]

| inhibition at 1000 µg/mL (monoamine oxidase-B) [%] | inhibition at 10000 µg/mL (monoamine oxidase-B) [%] | inhibition at 1000 µg/mL (monoamine oxidase-A) [%] | inhibition at 10000 µg/mL (monoamine oxidase-A) [%] | Compound | neurite outgrowth (FIG. 31) (PC12 cells) |
| --- | --- | --- | --- | --- | --- |
| -11.6 | -7.8 | -6.9 | 7.1 | CC(C)=CCC[C@](C)(O[C@@H]1O[C@H](CO[C@@H]2O[C@H](CO)[C@@H](O)[C@H](O)[C@H]2O)[C@@H](O)[C@H](O)[C@H]1O)[C@H]1CC[C@]2(C)[C@@H]1[C@H](O)C[C@@H]1[C@@]3(C)CC[C@H](O[C@@H]4O[C@H](CO)[C@@H](O)[C@H](O)[C@H]4O[C@@H]4O[C@H](CO)[C@@H](O)[C@H](O)[C@H]4O)C(C)(C)[C@@H]3CC[C@]12C [Rb1, ginsenoside Rb1] | significantly increased neurite outgrowth |
| -7.2 | -5 | -10.8 | 5.1 | CC(C)=CCC[C@](C)(O[C@@H]1O[C@H](CO)[C@@H](O)[C@H](O)[C@H]1O)[C@H]1CC[C@]2(C)[C@@H]1[C@H](O)C[C@@H]1[C@@]3(C)CC[C@H](O)C(C)(C)[C@@H]3[C@@H](O[C@@H]3O[C@H](CO)[C@@H](O)[C@H](O)[C@H]3O)C[C@]12C [Rg1, ginsenoside Rg1] | significantly increased neurite outgrowth |
